Reference: patent EP1410020B1, “TEST SYSTEM AND METHOD SUITABLE FOR SELECTING TEST MATERIALS AND FORMULATIONS” (PHARES PHARMACEUTICAL RESEARCH N.V., priority 2001, dated 2003)

Experiment: Transmembrane screen (TS) for membrane affinity: drug solution added to membrane lipid Test system in 96 well plate, turbidity assessed visually or at 690 nm
Type: physicochemical
Conditions: higher turbidity with VP 805 than VP200 at 10:1 or lower lipid to drug ratios

Clc1ccccc1C(c1ccccc1)(c1ccccc1)n1ccnc1 [Clotrimazole]
relative affinity for VP 200 versus VP 805 (turbidity): higher affinity for VP 200 than VP 805
